System: Field Pansy
Set-up: species or system Viola avensis
Details: in vivo

| Compound | plant vigour of Pansy versus untreated |
| --- | --- |
| Cc1cc(Cl)ccc1OCC(=O)O [MCPA, (4-chloro-2-methylphenoxy)acetic acid] | more vigorous plants than untreated only plants |

System: not given
Details: Table 1, carriers; cited from earlier work

| Compound | logP(o/w) |
| --- | --- |
| C[C@@H]1CC[C@@H](C(C)(C)S)C(=O)C1 [(1R,4R)-8-mercapto-3-p-menthanone] | 2.9 |

Same assay, conditions: Table 4, no pH given; cited from earlier work

| Compound | Log P |
| --- | --- |
| CCN(C(=O)n1nnn(-c2ccccc2Cl)c1=O)C1CCCCC1 [Fentrazamide] | 3.60 |
| CS(=O)(=O)c1ccc(C(=O)C2C(=O)CCCC2=O)c([N+](=O)[O-])c1 [Mesotrione] | 2.2 |
| CCc1cccc(C)c1N(C(=O)CCl)C(C)COC (stereo not shown) [Metolachlor] | 3.00 |

Same assay, conditions: Table 5, no pH given; cited from earlier work

| Compound | Log Pow |
| --- | --- |
| CCc1cccc(C)c1N(C(=O)CCl)C(C)COC (stereo not shown) [Metolachlor] | 2.9 |
| CCc1cccc(C)c1N(C(=O)CCl)[C@@H](C)COC [S-metolachlor] | 3.1 |
| O=C(O)c1cc(Oc2ccc(C(F)(F)F)cc2Cl)ccc1[N+](=O)[O-] [acifluorfen] | 4.2 |
| C#CCOc1cc(-n2nc3n(c2=O)CCCC3)c(Cl)cc1Cl [azafenidin] | 2.7 |
| Cc1ccc(C(=O)COc2c(C(=O)c3ccc(Cl)c(C)c3Cl)c(C)nn2C)cc1 [benzofenap] | 4.7 |
| COC(=O)c1cc(Oc2ccc(Cl)cc2Cl)ccc1[N+](=O)[O-] [bifenox] | 4.5 |
| N#Cc1cc(Br)c(O)c(Br)c1 [bromoxynil] | 2.8 |
| Cc1ccc(NC(=O)N(C)C)cc1Cl [chlorotoluron] | 2.5 |
| COC(=O)c1c(Cl)c(Cl)c(C(=O)OC)c(Cl)c1Cl [chlorthal-dimethyl] | 4.3 |
| CCOc1nc(F)cc2nc(S(=O)(=O)Nc3c(Cl)cccc3C(=O)OC)nn12 [cloransulam-methyl] | 1.2 |
| CCCC(=NOCC)C1=C(O)CC(C2CCCSC2)CC1=O (stereo not shown) [cycloxydim] | 1.4 |
| CCOC1Oc2ccc(OS(C)(=O)=O)cc2C1(C)C (stereo not shown) [ethofumesate] | 2.7 |
| CN(C)C(=O)Nc1ccccc1 [fenuron] | 1.4 |
| C[C@@H](Oc1ccc(Oc2ccc(C(F)(F)F)cn2)cc1)C(=O)O [fluazifop-P] | 3.1 |
| CCCCOC(=O)C(C)Oc1ccc(Oc2ccc(C(F)(F)F)cn2)cc1 (stereo not shown) [fluazifop-butyl] | 4.5 |
| CCCCOC(=O)[C@@H](C)Oc1ccc(Oc2ccc(C(F)(F)F)cn2)cc1 [fluazifop-p-butyl] | 4.5 |
| C#CCN1C(=O)COc2cc(F)c(N3C(=O)C4=C(CCCC4)C3=O)cc21 [flumioxazin] | 1.3 |
| COC(=O)[C@@H](C)Oc1ccc(Oc2ncc(C(F)(F)F)cc2Cl)cc1 [haloxyfop-P-methyl] | 4 |
| CCOCCOC(=O)C(C)Oc1ccc(Oc2ncc(C(F)(F)F)cc2Cl)cc1 (stereo not shown) [haloxyfop-etotyl] | 4.3 |
| CC(Oc1ccc(Oc2ncc(C(F)(F)F)cc2Cl)cc1)C(=O)O (stereo not shown) [haloxyfop] | 3.4 |
| CC(C)C1(C)N=C(c2nc3ccccc3cc2C(=O)O)NC1=O (stereo not shown) [imazaquin] | 2.9 |
| CON(C)C(=O)Nc1ccc(Cl)c(Cl)c1 [linuron] | 3 |

| Compound | Log Pow |
| --- | --- |
| CC(=O)Nc1cc(NS(=O)(=O)C(F)(F)F)c(C)cc1C [mefluidide] | 2 |
| Cc1nnc(-c2ccccc2)c(=O)n1N [metamitron] | 0.8 |
| Cc1cccc(C)c1N(Cn1cccn1)C(=O)CCl [metazachlor] | 2.1 |
| CON(C)C(=O)Nc1ccc(Oc2ccc3c(c2)OC(C)(OC)CC3(C)C)cc1 (stereo not shown) [metobenzuron] | 6.3 |
| COc1ccc(NC(=O)N(C)C)cc1Cl [metoxuron] | 1.6 |
| CCSC(=O)N1CCCCCC1 [molinate] | 2.9 |
| CNc1cnn(-c2cccc(C(F)(F)F)c2)c(=O)c1Cl [norflurazon] | 2.5 |
| CCOc1cc(Oc2ccc(C(F)(F)F)cc2Cl)ccc1[N+](=O)[O-] [oxyfluorfen] | 4.5 |
| CCC(CC)Nc1c([N+](=O)[O-])cc(C)c(C)c1[N+](=O)[O-] [pendimethalin] | 5.2 |
| CCCOCCN(C(=O)CCl)c1c(CC)cccc1CC [pretilachlor] | 4.1 |
| CCC(=O)Nc1ccc(Cl)c(Cl)c1 [propanil] | 3.3 |
| CCc1cccc(C)c1N(COC(C)C)C(=O)CCl [propisochlor] | 3.5 |
| C#CC(C)(C)NC(=O)c1cc(Cl)cc(Cl)c1 [propyzamide] | 3.2 |
| CCOC(=O)c1cnn(C)c1S(=O)(=O)NC(=O)Nc1nc(OC)cc(OC)n1 [pyrazosulfuron-ethyl] | 1.3 |
| COc1cc(OC)nc(Oc2cccc(Oc3nc(OC)cc(OC)n3)c2C(=O)ON=C(c2ccccc2)c2ccccc2)n1 [pyribenzoxim] | 3 |
| CCCCCCCCSC(=O)Oc1cc(Cl)nnc1-c1ccccc1 [pyridate] | 4 |
| CCNc1nc(Cl)nc(NCC)n1 [simazine] | 2.1 |
| CCNc1nc(NC(C)(C)C)nc(OC)n1 [terbumeton] | 3 |
| CCNc1nc(Cl)nc(NC(C)(C)C)n1 [terbuthylazine] | 3.2 |
| COc1ccsc1CN(C(=O)CCl)c1c(C)cccc1C [thenylchlor] | 3.5 |
| CCCN(CCC)c1c([N+](=O)[O-])cc(C(F)(F)F)cc1[N+](=O)[O-] [trifluralin] | 4.8 |

Same assay, conditions: Table 5, pH 5; cited from earlier work

| Compound | Log Pow |
| --- | --- |
| O=C(O)COc1nc(Cl)c(Cl)cc1Cl [triclopyr] | 0.4 (pH 5) |

Same assay, conditions: Table 5, pH 7; cited from earlier work

| Compound | Log Pow |
| --- | --- |
| COC(=O)c1ccccc1S(=O)(=O)NC(=O)Nc1nc(OC(F)F)cc(OC(F)F)n1 [primisulfuron-methyl] | 0.2 (pH 7) |

Same assay, conditions: Table 6; cited from earlier work

| Compound | logP |
| --- | --- |
| N#Cc1cc(Br)c(O)c(Br)c1 [bromoxynil] | 2.8 |
| CCOC(=O)Cc1cccc2ccccc12 [ethyl 1-naphthylacetate] | 3.8 |
| O=C(OCc1ccccc1)c1sc(Cl)nc1C(F)(F)F [flurazole] | 4.1 |
| CNc1cnn(-c2cccc(C(F)(F)F)c2)c(=O)c1Cl [norflurazon] | 2.45 |
| CCOc1cc(Oc2ccc(C(F)(F)F)cc2Cl)ccc1[N+](=O)[O-] [oxyfluorfen] | 4.5 |
| CCC(CC)Nc1c([N+](=O)[O-])cc(C)c(C)c1[N+](=O)[O-] [pendimethalin] | 5.2 |

Same assay, conditions: pH 1; cited from earlier work

| Compound | Log Pow |
| --- | --- |
| Cc1cc(Cl)ccc1OCC(=O)O [MCPA, (4-chloro-2-methylphenoxy)acetic acid] | 2.8 (pH 1) |
| CS(=O)(=O)NC(=O)c1cc(Oc2ccc(C(F)(F)F)cc2Cl)ccc1[N+](=O)[O-] [fomesafen] | 2.9 (pH 1) |

Same assay, conditions: pH 2; cited from earlier work

| Compound | Log P |
| --- | --- |
| CS(=O)(=O)c1cc(Cl)ccc1C(=O)c1cnoc1C1CC1 [Isoxachlortole] | 2.76 (pH 2) |

Same assay, conditions: pH 3.9; cited from earlier work

| Compound | Log Pow |
| --- | --- |
| COC(=O)Nc1cccc(OC(=O)Nc2cccc(C)c2)c1 [phenmedipham] | 3.6 (pH 3.9) |

Same assay, conditions: pH 5; cited from earlier work

| Compound | Log Pow |
| --- | --- |
| COC(=O)c1ccccc1S(=O)(=O)NC(=O)Nc1nc(C)cc(C)n1 [sulfometuron-methyl] | 1.2 (pH 5) |

Same assay, conditions: pH 7; cited from earlier work

| Compound | Log P |
| --- | --- |
| CC(C)c1nn(C(=O)NC(C)(C)C)c(=O)n1N [amicarbazone] | 1.23 (pH 7) |
| CCc1cnc(C2=NC(C)(C(C)C)C(=O)N2)c(C(=O)O)c1 (stereo not shown) [imazethapyr] | 1.49 (pH 7) |

Same assay, conditions: pH 9; cited from earlier work

| Compound | Log Pow |
| --- | --- |
| COc1cc(OC)n2nc(S(=O)(=O)Nc3c(Cl)ccc(C)c3Cl)nc2n1 [metosulam] | 3.1 (pH 9) |

From patent publication US20080242544A1, “Phytoactive Composition” (priority 2004, published 2008)
